Measured values: US6355799B1, “Substituted benzene compounds, process for their preparation, and herbicidal and defoliant compositions containing them” (ISK Americas Incorporated, priority 1997, dated 2002)

Tests used:
Type in all cases: in vivo
[1] = tested on: velvetleaf (Abutilon theophrasti, ABUTH); assay: Post-emerge test, greenhouse herbicide activity screening; settings: post-emerge, phytotoxicity rating 0-100 at 14 days after application
Outline: (§1)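 Compounds in acetone were track-sprayed at 187 l/ha, 15–1000 g ai/ha, onto sandy loam pots. Pre-emerge seeds were sown one day before spraying, with surface watering afterwards. Post-emerge plants were at the 2–3 leaf stage and sprayed with 0.25% v/v non-ionic surfactant. Injury was rated 0–100 at 14 days.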

[2] = tested on: barnyardgrass (Echinochloa crus-galli, ECHCG); assay: as above; settings: post-emerge, phytotoxicity rating 0-100 at 14 days after application
Outline: as §1

[3] = tested on: redroot pigweed (Amaranthus retroflexus, AMARE); assay: as above; settings: post-emerge, phytotoxicity rating 0-100 at 14 days after application
Outline: as §1

[4] = tested on: large crabgrass (Digitaria sanguinalis, DIGSA); assay: as above; settings: post-emerge, phytotoxicity rating 0-100 at 14 days after application
Outline: as §1

[5] = tested on: lambsquarters (Chenopodium album, CHEAL); assay: as above; settings: post-emerge, phytotoxicity rating 0-100 at 14 days after application
Outline: as §1

[6] = tested on: green foxtail (Setaria viridis, SETVI); assay: as above; settings: post-emerge, phytotoxicity rating 0-100 at 14 days after application
Outline: as §1

[7] = tested on: ivyleaf morningglory (Ipomoea hederacea, IPOHE); assay: as above; settings: post-emerge, phytotoxicity rating 0-100 at 14 days after application
Outline: as §1

[8] = tested on: sicklepod (Cassia obtusifolia, CASOB); assay: as above; settings: post-emerge, phytotoxicity rating 0-100 at 14 days after application
Outline: as §1

[9] = tested on: johnsongrass (Sorghum halepense, SORHA); assay: as above; settings: post-emerge, phytotoxicity rating 0-100 at 14 days after application
Outline: as §1

[10] = tested on: velvetleaf (Abutilon theophrasti, ABUTH); assay: Pre-emerge test, greenhouse herbicide activity screening; settings: pre-emerge, phytotoxicity rating 0-100 at 14 days after application
Outline: (§2)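 Plants grown in 10 cm pots of sandy loam mix received acetone-dissolved compounds through a moving flat-fan nozzle. Doses ranged from 15 to 1000 g ai/ha. Pre-emerge pots were seeded one day earlier, post-emerge pots 8–21 days earlier. Fourteen days on, each pot was graded 0–100 for damage.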

[11] = tested on: barnyardgrass (Echinochloa crus-galli, ECHCG); assay: as above; settings: pre-emerge, phytotoxicity rating 0-100 at 14 days after application
Outline: as §2

[12] = tested on: large crabgrass (Digitaria sanguinalis, DIGSA); assay: as above; settings: pre-emerge, phytotoxicity rating 0-100 at 14 days after application
Outline: as §2

[13] = tested on: lambsquarters (Chenopodium album, CHEAL); assay: as above; settings: pre-emerge, phytotoxicity rating 0-100 at 14 days after application
Outline: as §2

[14] = tested on: green foxtail (Setaria viridis, SETVI); assay: as above; settings: pre-emerge, phytotoxicity rating 0-100 at 14 days after application
Outline: as §2

[15] = tested on: ivyleaf morningglory (Ipomoea hederacea, IPOHE); assay: as above; settings: pre-emerge, phytotoxicity rating 0-100 at 14 days after application
Outline: as §2

[16] = tested on: sicklepod (Cassia obtusifolia, CASOB); assay: as above; settings: pre-emerge, phytotoxicity rating 0-100 at 14 days after application
Outline: as §2

[17] = tested on: johnsongrass (Sorghum halepense, SORHA); assay: as above; settings: pre-emerge, phytotoxicity rating 0-100 at 14 days after application
Outline: as §2

[18] = tested on: upland rice (Oryza sp., var. Tebonnet, RICE); assay: Post-emerge test, crop safety; settings: post-emerge, crop damage rating 0-100 at 14 days after application
Outline: (§3)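 Each test used a mechanized track sprayer delivering 187 l/ha of acetone solution at 15–1000 g ai/ha. Post-emerge foliage at 2–3 leaves was treated with added 0.25% v/v non-ionic surfactant and bottom-watered only. Injury was assessed on day 14, where 100 means total kill.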

[19] = tested on: field corn (Zea mays L., var. Dekalb 535, CORN); assay: Post-emerge test, crop safety; settings: post-emerge, crop damage rating 0-100 at 14 days after application
Outline: as §3

[20] = tested on: redroot pigweed (Amaranthus retroflexus, AMARE); assay: Pre-emerge test, greenhouse herbicide activity screening; settings: pre-emerge, phytotoxicity rating 0-100 at 14 days after application
Outline: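 Rating: 0–100 visual injury, 14 DAA. Application: acetone, 187 l/ha, 15–1000 g ai/ha, flat-fan track sprayer with nozzle 40–45 cm above soil or canopy. Post-emerge runs used 0.25% v/v surfactant on 2–3 leaf plants.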

[21] = tested on: upland rice (Oryza sp., var. Tebonnet, RICE); assay: Pre-emerge test, crop safety; settings: crop damage, pre-emerge, phytotoxicity rating 0-100 at 14 days after application
Outline: (§4)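 Fourteen days after spraying, crop and weed injury was graded visually from 0, no effect, to 100, every plant dead. Test substances were dissolved in acetone and applied at 15–1000 g ai/ha with a flat-fan nozzle. Application was either pre-emergence, one day after sowing, or post-emergence at the 2–3 leaf stage.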

[22] = tested on: field corn (Zea mays L., var. Dekalb 535, CORN); assay: Pre-emerge test, crop safety; settings: crop damage, pre-emerge, phytotoxicity rating 0-100 at 14 days after application
Outline: as §4

COc1c(Cl)cc(F)c(N2C(=O)C3=C(CCCC3)C2=O)c1N [8-7]
99: Post-emerge Herbicidal Activity CHEAL ([5]; 250 g ai/ha) | Pre-emerge Herbicidal Activity SETVI ([14]; rate 250 g ai/ha) | Pre-emerge Herbicidal Activity AMARE ([20]; rate 63 g ai/ha)
70: Post-emerge Herbicidal Activity IPOHE ([7]; 250 g ai/ha) | Pre-emerge Herbicidal Activity ECHCG ([11]; rate 250 g ai/ha) | Pre-emerge Herbicidal Activity SORHA ([17]; rate 250 g ai/ha)
90: Post-emerge Herbicidal Activity SETVI ([6]; 250 g ai/ha) | Post-emerge Herbicidal Activity CASOB ([8]; 250 g ai/ha) | Post-emerge Herbicidal Activity RICE ([18]; 250 g ai/ha)
50: Pre-emerge Herbicidal Activity DIGSA ([12]; rate 63 g ai/ha)
0: Post-emerge Herbicidal Activity ECHCG ([2]; 63 g ai/ha) | Post-emerge Herbicidal Activity DIGSA ([4]; 63 g ai/ha) | Post-emerge Herbicidal Activity SETVI ([6]; 63 g ai/ha) | Post-emerge Herbicidal Activity CASOB ([8]; 63 g ai/ha) | Post-emerge Herbicidal Activity SORHA ([9]; 63 g ai/ha) | Post-emerge Herbicidal Activity SORHA ([9]; 250 g ai/ha) | Pre-emerge Herbicidal Activity ECHCG ([11]; rate 63 g ai/ha) | Pre-emerge Herbicidal Activity IPOHE ([15]; rate 63 g ai/ha) | Pre-emerge Herbicidal Activity IPOHE ([15]; rate 250 g ai/ha) | Pre-emerge Herbicidal Activity CASOB ([16]; rate 63 g ai/ha) | Pre-emerge Herbicidal Activity CASOB ([16]; rate 250 g ai/ha) | Post-emerge Herbicidal Activity RICE ([18]; 63 g ai/ha) | Pre-emerge Herbicidal Activity RICE ([21]; rate 63 g ai/ha) | Pre-emerge Herbicidal Activity RICE ([21]; rate 250 g ai/ha) | Pre-emerge Herbicidal Activity CORN ([22]; rate 63 g ai/ha)
95: Post-emerge Herbicidal Activity ABUTH ([1]; 63 g ai/ha) | Post-emerge Herbicidal Activity AMARE ([3]; 63 g ai/ha) | Post-emerge Herbicidal Activity CHEAL ([5]; 63 g ai/ha) | Pre-emerge Herbicidal Activity CHEAL ([13]; rate 63 g ai/ha) | Pre-emerge Herbicidal Activity SETVI ([14]; rate 63 g ai/ha)
20: Post-emerge Herbicidal Activity ECHCG ([2]; 250 g ai/ha)
10: Post-emerge Herbicidal Activity DIGSA ([4]; 250 g ai/ha) | Post-emerge Herbicidal Activity IPOHE ([7]; 63 g ai/ha) | Pre-emerge Herbicidal Activity SORHA ([17]; rate 63 g ai/ha) | Post-emerge Herbicidal Activity CORN ([19]; 63 g ai/ha) | Post-emerge Herbicidal Activity CORN ([19]; 250 g ai/ha) | Pre-emerge Herbicidal Activity CORN ([22]; rate 250 g ai/ha)
100: Post-emerge Herbicidal Activity ABUTH ([1]; 250 g ai/ha) | Post-emerge Herbicidal Activity AMARE ([3]; 250 g ai/ha) | Pre-emerge Herbicidal Activity ABUTH ([10]; rate 63 g ai/ha) | Pre-emerge Herbicidal Activity ABUTH ([10]; rate 250 g ai/ha) | Pre-emerge Herbicidal Activity CHEAL ([13]; rate 250 g ai/ha) | Pre-emerge Herbicidal Activity AMARE ([20]; rate 250 g ai/ha)
80: Pre-emerge Herbicidal Activity DIGSA ([12]; rate 250 g ai/ha)

C#CCOc1c(Cl)cc(F)c(N2C(=O)C3=C(CCCC3)C2=O)c1NC(=O)c1ccc(F)cc1F [8-13]
0: Pre-emerge Herbicidal Activity ECHCG ([11]; rate 63 g ai/ha) | Pre-emerge Herbicidal Activity DIGSA ([12]; rate 63 g ai/ha) | Pre-emerge Herbicidal Activity IPOHE ([15]; rate 63 g ai/ha) | Pre-emerge Herbicidal Activity IPOHE ([15]; rate 125 g ai/ha) | Pre-emerge Herbicidal Activity CASOB ([16]; rate 63 g ai/ha) | Pre-emerge Herbicidal Activity CASOB ([16]; rate 125 g ai/ha) | Pre-emerge Herbicidal Activity SORHA ([17]; rate 63 g ai/ha) | Pre-emerge Herbicidal Activity CORN ([22]; rate 63 g ai/ha) | Pre-emerge Herbicidal Activity CORN ([22]; rate 125 g ai/ha)
60: Post-emerge Herbicidal Activity IPOHE ([7]; 125 g ai/ha)
40: Post-emerge Herbicidal Activity ECHCG ([2]; 125 g ai/ha) | Pre-emerge Herbicidal Activity DIGSA ([12]; rate 125 g ai/ha) | Pre-emerge Herbicidal Activity SETVI ([14]; rate 125 g ai/ha) | Post-emerge Herbicidal Activity CORN ([19]; 125 g ai/ha)
100: Post-emerge Herbicidal Activity ABUTH ([1]; 63 g ai/ha) | Post-emerge Herbicidal Activity ABUTH ([1]; 125 g ai/ha) | Post-emerge Herbicidal Activity AMARE ([3]; 63 g ai/ha) | Post-emerge Herbicidal Activity AMARE ([3]; 125 g ai/ha) | Pre-emerge Herbicidal Activity ABUTH ([10]; rate 125 g ai/ha) | Pre-emerge Herbicidal Activity CHEAL ([13]; rate 63 g ai/ha)
10: Post-emerge Herbicidal Activity DIGSA ([4]; 125 g ai/ha) | Post-emerge Herbicidal Activity SORHA ([9]; 63 g ai/ha) | Post-emerge Herbicidal Activity CORN ([19]; 63 g ai/ha) | Pre-emerge Herbicidal Activity RICE ([21]; rate 63 g ai/ha) | Pre-emerge Herbicidal Activity RICE ([21]; rate 125 g ai/ha)
70: Pre-emerge Herbicidal Activity CHEAL ([13]; rate 125 g ai/ha) | Post-emerge Herbicidal Activity RICE ([18]; 125 g ai/ha) | Pre-emerge Herbicidal Activity AMARE ([20]; rate 125 g ai/ha)
30: Post-emerge Herbicidal Activity SETVI ([6]; 63 g ai/ha) | Post-emerge Herbicidal Activity SETVI ([6]; 125 g ai/ha) | Post-emerge Herbicidal Activity CASOB ([8]; 63 g ai/ha) | Pre-emerge Herbicidal Activity ECHCG ([11]; rate 125 g ai/ha) | Pre-emerge Herbicidal Activity SORHA ([17]; rate 125 g ai/ha) | Post-emerge Herbicidal Activity RICE ([18]; 63 g ai/ha)
20: Post-emerge Herbicidal Activity ECHCG ([2]; 63 g ai/ha) | Post-emerge Herbicidal Activity DIGSA ([4]; 63 g ai/ha) | Post-emerge Herbicidal Activity SORHA ([9]; 125 g ai/ha) | Pre-emerge Herbicidal Activity SETVI ([14]; rate 63 g ai/ha)
50: Post-emerge Herbicidal Activity IPOHE ([7]; 63 g ai/ha) | Post-emerge Herbicidal Activity CASOB ([8]; 125 g ai/ha) | Pre-emerge Herbicidal Activity AMARE ([20]; rate 63 g ai/ha)
90: Post-emerge Herbicidal Activity CHEAL ([5]; 63 g ai/ha) | Post-emerge Herbicidal Activity CHEAL ([5]; 125 g ai/ha) | Pre-emerge Herbicidal Activity ABUTH ([10]; rate 63 g ai/ha)
